Among the data in ChEMBL document CHEMBL1800045, “Eudistomidins H-K, new β-carboline alkaloids from the Okinawan marine tunicate Eudistoma glaucus” (Bioorg Med Chem Lett, 2011) are IC50 values, retold here.

Common to all, as to format: functional, cell-based
In assay [1] the test system is L1210. Nature of the assay: Cytotoxicity against mouse L1210 cells.
For assay [2], the system named is KB. Nature of the assay: Cytotoxicity against human KB cells.
The subject of assay [3] is P388. Put plainly: Cytotoxicity against mouse P388 cells.

Each structure is given as a SMILES string. ≈ marks a conversion by molar mass, not a printed value. Some results are limits rather than exact numbers.

As a reminder, the IC50 is the point on the concentration scale where inhibition reaches its midpoint. High values mean lower potency, low ones higher potency. `CN[C@H](CSC)c1nccc2c1[nH]c1ccc(O)c(Br)c12` [EUDISTOMIDIN C] displayed an IC50 in assay [1] of 0.36 µg/mL (≈ 0.983 µM).

In the case of `CN1Cn2c3c(c4ccc(Br)cc42)CCN(C)[C@@H]3[C@@H]1Cc1ccccc1` [EUDISTOMIDIN H], the IC50 in assay [2], in assay [1] and in assay [3] was > 10 µg/mL throughout.

As for `CN1Cn2c3c(c4cc(Br)ccc42)CCN(C)[C@@H]3[C@@H]1Cc1ccccc1` [EUDISTOMIDIN I], the IC50 in assay [2], in assay [1] and in assay [3] was > 10 µg/mL throughout.

Regarding `CN[C@H](C[S+](C)[O-])c1nccc2c1[nH]c1ccc(O)c(Br)c12` (stereo partly drawn) [EUDISTOMIDIN J], the half-inhibitory concentration (IC50) in assay [2] turned out to be 0.063 µg/mL (≈ 0.165 µM); in assay [1], 0.047 µg/mL (≈ 0.123 µM); in assay [3], 0.043 µg/mL (≈ 0.112 µM).

As for `CC(=O)c1nccc2c1[nH]c1ccc(O)c(Br)c12` [EUDISTOMIDIN K], the half-maximal inhibitory concentration (IC50) in assay [2], in assay [1] and in assay [3] was > 10 µg/mL each time.
